Measured values: PMC6600388 (2019)
Read-outs that look alike come from different tables or passages of the source. Residues, ends and D or L forms follow the SMILES beside them.

System: human red blood cells
Conditions: red cells of human

Structure (SMILES)	IC50 (pH 5.5)	IC50 (pH 7.4)
N=C(N)NCCC[C@H](NC(=O)[C@H](CCCNC(=N)N)NC(=O)[C@H](CCC(N)=O)NC(=O)[C@H](CCCNC(=N)N)NC(=O)[C@H](CCCNC(=N)N)NC(=O)[C@H](CCCCN)NC(=O)[C@H](CCCCN)NC(=O)[C@H](CCCNC(=N)N)NC(=O)CNC(=O)[C@H](Cc1ccc(O)cc1)NC(=O)[C@@H](N)CS)C(N)=O [Peptide 1, reference compound] (H-CYGRKKRRQRR-NH2)	> 20 µM	> 20 µM
CC[C@H](C)[C@H](NC(=O)[C@H](CCCCN)NC(=O)[C@@H](NC(=O)[C@H](CCC(N)=O)NC(=O)[C@H](CCCNC(=N)N)NC(=O)[C@@H](N)CS)[C@@H](C)CC)C(=O)N[C@@H](Cc1c[nH]c2ccccc12)C(=O)N[C@@H](Cc1ccccc1)C(=O)N[C@@H](CCC(N)=O)C(=O)N[C@@H](CC(N)=O)C(=O)N[C@@H](CCCNC(=N)N)C(=O)N[C@@H](CCCNC(=N)N)C(=O)N[C@@H](CCSC)C(=O)N[C@@H](CCCCN)C(=O)N[C@@H](Cc1c[nH]c2ccccc12)C(=O)N[C@@H](CCCCN)C(=O)N[C@@H](CCCCN)C(N)=O [Peptide 2, reference compound]	> 20 µM	> 20 µM
CC[C@H](C)[C@H](NC(=O)[C@H](C)NC(=O)[C@H](CCC(=O)O)NC(=O)[C@H](Cc1ccccc1)NC(=O)[C@H](CC(C)C)NC(=O)CNC(=O)[C@@H](N)CS)C(=O)N[C@@H](C)C(=O)NCC(=O)N[C@@H](Cc1ccccc1)C(=O)N[C@H](C(=O)N[C@@H](CCC(=O)O)C(=O)N[C@@H](CC(N)=O)C(=O)NCC(=O)N[C@@H](Cc1c[nH]c2ccccc12)C(=O)N[C@@H](CCC(=O)O)C(=O)NCC(=O)N[C@@H](CCSC)C(=O)N[C@H](C(=O)N[C@@H](CC(=O)O)C(=O)NCC(=O)N[C@@H](Cc1c[nH]c2ccccc12)C(=O)N[C@@H](Cc1ccc(O)cc1)C(=O)NCC(N)=O)[C@@H](C)CC)[C@@H](C)CC [Peptide 3, reference compound] (H-CGLFEAIAGFIENGWEGMIDGWYG-NH2)	> 20 µM	> 20 µM
CC[C@H](C)[C@H](NC(=O)[C@H](C)NC(=O)[C@H](CCC(=O)O)NC(=O)[C@H](Cc1ccccc1)NC(=O)[C@H](CC(C)C)NC(=O)CNC(=O)[C@@H](N)CS)C(=O)N[C@@H](CCC(=O)O)C(=O)NCC(=O)N[C@@H](Cc1ccccc1)C(=O)N[C@H](C(=O)N[C@@H](CCC(=O)O)C(=O)N[C@@H](CC(N)=O)C(=O)NCC(=O)N[C@@H](Cc1c[nH]c2ccccc12)C(=O)N[C@@H](CCC(=O)O)C(=O)NCC(=O)N[C@@H](CCSC)C(=O)N[C@H](C(=O)N[C@@H](CC(=O)O)C(=O)NCC(=O)N[C@@H](Cc1c[nH]c2ccccc12)C(=O)N[C@@H](Cc1ccc(O)cc1)C(=O)NCC(N)=O)[C@@H](C)CC)[C@@H](C)CC [Peptide 4, reference compound]	16 µM	> 20 µM
CC[C@H](C)[C@H](NC(=O)[C@H](C)NC(=O)[C@H](Cc1c[nH]cn1)NC(=O)[C@H](Cc1ccccc1)NC(=O)[C@H](CC(C)C)NC(=O)CNC(=O)[C@@H](N)CS)C(=O)N[C@@H](C)C(=O)N[C@@H](Cc1c[nH]cn1)C(=O)N[C@@H](Cc1ccccc1)C(=O)N[C@H](C(=O)N[C@@H](Cc1c[nH]cn1)C(=O)NCC(=O)NCC(=O)N[C@@H](Cc1c[nH]c2ccccc12)C(=O)N[C@@H](Cc1c[nH]cn1)C(=O)NCC(=O)N[C@@H](CC(C)C)C(=O)N[C@H](C(=O)N[C@@H](Cc1c[nH]cn1)C(=O)NCC(=O)N[C@@H](Cc1c[nH]c2ccccc12)C(=O)N[C@@H](Cc1ccc(O)cc1)C(=O)NCC(=O)N[C@@H](Cc1ccc(O)cc1)C(=O)NCC(=O)N[C@@H](CCCNC(=N)N)C(=O)N[C@@H](CCCCN)C(=O)N[C@@H](CCCCN)C(=O)N[C@@H](CCCNC(=N)N)C(=O)N[C@@H](CCCNC(=N)N)C(=O)N[C@@H](CCC(N)=O)C(=O)N[C@@H](CCCNC(=N)N)C(=O)N[C@@H](CCCNC(=N)N)C(N)=O)[C@@H](C)CC)[C@@H](C)CC [Peptide 7] (H-CGLFHAIAHFIHGGWHGLIHGWYGYGRKKRRQRR-NH2)	5.9 µM	0.3 µM
CC[C@H](C)[C@H](NC(=O)[C@H](C)NC(=O)[C@H](CCC(=O)O)NC(=O)[C@H](Cc1ccccc1)NC(=O)[C@H](CC(C)C)NC(=O)CNC(=O)[C@@H](N)CS)C(=O)N[C@@H](CCC(=O)O)C(=O)NCC(=O)N[C@@H](Cc1ccccc1)C(=O)N[C@H](C(=O)N[C@@H](CCC(=O)O)C(=O)N[C@@H](CC(N)=O)C(=O)NCC(=O)N[C@@H](Cc1c[nH]c2ccccc12)C(=O)N[C@@H](CCC(=O)O)C(=O)NCC(=O)N[C@@H](CC(C)C)C(=O)N[C@H](C(=O)N[C@@H](CC(=O)O)C(=O)NCC(=O)N[C@@H](Cc1c[nH]c2ccccc12)C(=O)N[C@@H](Cc1ccc(O)cc1)C(=O)NCC(=O)N[C@@H](Cc1ccc(O)cc1)C(=O)NCC(=O)N[C@@H](CCCNC(=N)N)C(=O)N[C@@H](CCCCN)C(=O)N[C@@H](CCCCN)C(=O)N[C@@H](CCCNC(=N)N)C(=O)N[C@@H](CCCNC(=N)N)C(=O)N[C@@H](CCC(N)=O)C(=O)N[C@@H](CCCNC(=N)N)C(=O)N[C@@H](CCCNC(=N)N)C(N)=O)[C@@H](C)CC)[C@@H](C)CC [Peptide 28g]	0.71 µM	2.9 µM
CC[C@H](C)[C@H](NC(=O)[C@H](C)NC(=O)[C@H](CCC(=O)O)NC(=O)[C@H](Cc1ccccc1)NC(=O)[C@H](CC(C)C)NC(=O)CNC(=O)[C@@H](N)CS)C(=O)N[C@@H](CCC(=O)O)C(=O)NCC(=O)N[C@@H](Cc1ccccc1)C(=O)N[C@H](C(=O)N[C@@H](CCC(=O)O)C(=O)N[C@@H](CC(N)=O)C(=O)NCC(=O)N[C@@H](Cc1c[nH]c2ccccc12)C(=O)N[C@@H](CCC(=O)O)C(=O)NCC(=O)N[C@@H](CCSC)C(=O)N[C@H](C(=O)N[C@@H](CC(=O)O)C(=O)NCC(=O)NCC(=O)NCC(=O)NCC(=O)N[C@@H](Cc1ccc(O)cc1)C(=O)NCC(=O)N[C@@H](CCCNC(=N)N)C(=O)N[C@@H](CCCCN)C(=O)N[C@@H](CCCCN)C(=O)N[C@@H](CCCNC(=N)N)C(=O)N[C@@H](CCCNC(=N)N)C(=O)N[C@@H](CCC(N)=O)C(=O)N[C@@H](CCCNC(=N)N)C(=O)N[C@@H](CCCNC(=N)N)C(N)=O)[C@@H](C)CC)[C@@H](C)CC [Peptide 32b] (H-CGLFEAIEGFIENGWEGMIDGGGGYGRKKRRQRR-NH2)	> 10 µM	> 10 µM
CC[C@H](C)[C@H](NC(=O)[C@H](C)NC(=O)[C@H](CCC(=O)O)NC(=O)[C@H](C)NC(=O)[C@H](CC(C)C)NC(=O)CNC(=O)[C@@H](N)CS)C(=O)N[C@@H](CCC(=O)O)C(=O)NCC(=O)N[C@@H](Cc1ccccc1)C(=O)N[C@H](C(=O)N[C@@H](CCC(=O)O)C(=O)N[C@@H](CC(N)=O)C(=O)NCC(=O)N[C@@H](CC(C)C)C(=O)N[C@@H](CCCCN)C(=O)NCC(=O)N[C@@H](CC(C)C)C(=O)N[C@H](C(=O)N[C@@H](CC(=O)O)C(=O)N[C@@H](Cc1c[nH]c2ccccc12)C(=O)N[C@@H](Cc1c[nH]c2ccccc12)C(=O)N[C@@H](Cc1ccc(O)cc1)C(=O)NCC(=O)N[C@@H](Cc1ccc(O)cc1)C(=O)NCC(=O)N[C@@H](CCCNC(=N)N)C(=O)N[C@@H](CCCCN)C(=O)N[C@@H](CCCCN)C(=O)N[C@@H](CCCNC(=N)N)C(=O)N[C@@H](CCCNC(=N)N)C(=O)N[C@@H](CCC(N)=O)C(=O)N[C@@H](CCCNC(=N)N)C(=O)N[C@@H](CCCNC(=N)N)C(N)=O)[C@@H](C)CC)[C@@H](C)CC [Peptide 58] (H-CGLAEAIEGFIENGLKGLIDWWYGYGRKKRRQRR-NH2)	0.06 µM	2 µM
